Experimental data from patent US20020176889A1 (priority 2000, published 2002).
Structures can show the parent of a compound that is named as a salt.

Test: pH of saturated aqueous solution
Type: physicochemical
Description: The pH of the composition can be controlled or adjusted by the proper selection of excipients. It should be borne in mind that amlodipine maleate is slightly acidic. […] An example of a pH-inert excipient is microcrystalline cellulose.

- pH as a saturated aqueous solution: about 4.8
Structure (SMILES): CCOC(=O)C1=C(COCCN)NC(C)=C(C(=O)OC)C1c1ccccc1Cl (stereo not shown) [amlodipine maleate]
